Molecular target: human ERG receptor (Homo sapiens (Human), UniProt Q12809)
Test: HERGBD: inhibition of specific [3H]-Dofetilide binding to the hERG receptor
Conditions: HEK cell membranes
Protocol: Inhibition of Specific Binding to the hERG—Receptor (HERGBD)
A HEK cell line with stable transfected human ERG receptor was used for the assay. The cells were grown adherently and maintained in DULBECCOS' MEM medium with 10% FBS, 1% non-essential amino acids, 1% Penicillin/Streptomycin and 400 μg/ml G418 (Calbiochem).
For binding assays and membrane preparations the cell culture medium was removed, cells were washed with PBS. Crude membranes for radioligand binding experiments were prepared by scraping the cells off the dishes in ice cold 20 mM HEPES/0.1 mM KCl/pH 7.2. […]
Binding was terminated by filtration of the incubated membrane preparations using Filtermat B (Pharmacia, Uppsala Sweden) and a Micro Cell Harvester (Skatron, Lier, Norway). The Filtermat B had been presoaked with 1% polyethylen imine and carefully washed with 0.05 M Tris/HCl-buffer pH=7.7 after the filtration to separate free and bound radioactivity. The filters were counted in a scintillation counter (Betaplate 1205, Berthold, Wildbad, Germany) in order to determine the specific binding of [^3H]-Dofetilide.
The optimal amount of membrane preparation in the assay was determined and optimized for each membrane preparation separately in front of using the membranes in compound testing. […]

human ERG receptor, sequence (Q12809 whole entry): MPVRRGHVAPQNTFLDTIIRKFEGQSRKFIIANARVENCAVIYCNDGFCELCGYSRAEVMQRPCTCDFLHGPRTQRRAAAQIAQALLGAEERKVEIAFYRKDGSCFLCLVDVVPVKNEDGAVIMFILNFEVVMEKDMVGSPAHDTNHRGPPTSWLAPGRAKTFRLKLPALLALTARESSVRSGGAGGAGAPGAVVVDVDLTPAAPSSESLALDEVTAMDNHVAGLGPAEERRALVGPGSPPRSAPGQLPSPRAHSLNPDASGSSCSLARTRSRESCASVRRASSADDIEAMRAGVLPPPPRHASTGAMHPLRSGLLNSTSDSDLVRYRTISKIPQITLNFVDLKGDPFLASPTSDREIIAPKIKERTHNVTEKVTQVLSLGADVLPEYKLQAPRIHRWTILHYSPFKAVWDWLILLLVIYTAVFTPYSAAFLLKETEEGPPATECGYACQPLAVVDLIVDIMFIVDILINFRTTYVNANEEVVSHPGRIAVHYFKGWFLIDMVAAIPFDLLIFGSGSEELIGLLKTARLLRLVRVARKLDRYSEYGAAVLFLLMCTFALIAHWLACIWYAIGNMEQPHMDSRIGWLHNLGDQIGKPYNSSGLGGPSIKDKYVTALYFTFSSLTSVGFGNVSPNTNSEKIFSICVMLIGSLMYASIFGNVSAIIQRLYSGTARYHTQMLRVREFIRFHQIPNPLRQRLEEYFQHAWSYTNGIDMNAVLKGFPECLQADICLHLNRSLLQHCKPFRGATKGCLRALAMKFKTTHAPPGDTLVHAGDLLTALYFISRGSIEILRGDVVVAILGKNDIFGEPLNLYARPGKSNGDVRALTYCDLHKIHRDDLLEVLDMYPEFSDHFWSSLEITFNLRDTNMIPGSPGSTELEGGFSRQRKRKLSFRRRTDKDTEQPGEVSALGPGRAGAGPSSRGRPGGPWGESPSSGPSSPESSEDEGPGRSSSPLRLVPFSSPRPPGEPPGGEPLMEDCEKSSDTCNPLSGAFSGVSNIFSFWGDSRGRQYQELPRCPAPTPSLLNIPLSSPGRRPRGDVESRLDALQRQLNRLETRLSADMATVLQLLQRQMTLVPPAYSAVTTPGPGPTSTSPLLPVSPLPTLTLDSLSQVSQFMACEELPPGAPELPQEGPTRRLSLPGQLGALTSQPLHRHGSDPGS

Compound	IC50 [µM]
Cn1ccc(Cn2cc(-c3cccc(C(F)(F)F)c3)cn2)n1 [Example 49, 1-methyl-3-[[4-[3-(trifluoromethyl)phenyl]pyrazol-1-yl]methyl]pyrazole]	19
Cc1cc(Cn2cc(-c3ccc(C(F)(F)F)cc3)cn2)n(C)n1 [Example 51, 1,3-Dimethyl-5-[[4-[4-(trifluoromethyl)phenyl]pyrazol-1-yl]methyl]-Pyrazole]	137
